In patent EP4545550B1, “INSECT NEUROPEPTIDES” (Solasta Bio Limited, priority 2023, dated 2025):

Tested on: Spodoptera frugiperda
Assay: Lepidoptera artificial diet assay
Type: in vivo
Conditions: unformulated peptide, final concentration 1x10^-4 M in artificial diet, one L1 larva per cell, n=10, after 168 hours; compared to the insecticide DDT and negative control vehicle
Source text: Frontier Lepidoptera artificial diet was made up by preparing agar at 1% and then mixing it with artificial diet powder. Peptide solution was aliquoted in 10 cells and diet poured straight onto it. The final concentration of the peptide was 1x10^-4 M, and each peptide was aliquoted in 10 cells. Once the diet solidified and cooled down, one L1 larvae was infested in each cell. The trays were sealed with heat and let larva were allowed to develop for 168 hrs. Finally, pupation and mortality were scored for. Lepidoptera artificial diet assays were performed with SB-P-80, and compared to a negative control vehicle and the insecticide dichlorodiphenyltrichloroethane (DDT).

H-NADEDQQQSVDFTPRL-NH2 [SB-P-80, [Hy]-NADEDQQQSVDFTPRL-[NH2]]
activity (pupation and mortality scored): much higher activity
